This test has as its target T1, human P2X4 (Homo sapiens, UniProt Q99571).
T1 sequence (Q99571 1-388): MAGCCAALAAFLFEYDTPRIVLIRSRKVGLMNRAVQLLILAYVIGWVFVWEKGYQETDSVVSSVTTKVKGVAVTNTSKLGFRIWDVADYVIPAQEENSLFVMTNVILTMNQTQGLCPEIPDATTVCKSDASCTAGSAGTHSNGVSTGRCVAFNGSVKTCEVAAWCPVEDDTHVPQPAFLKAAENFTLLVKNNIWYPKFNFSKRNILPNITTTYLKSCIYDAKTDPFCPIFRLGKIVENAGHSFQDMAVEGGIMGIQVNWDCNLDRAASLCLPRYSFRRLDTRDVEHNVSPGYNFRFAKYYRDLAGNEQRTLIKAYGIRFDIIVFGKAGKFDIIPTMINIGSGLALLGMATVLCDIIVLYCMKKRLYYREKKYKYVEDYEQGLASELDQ
The experiment in a line: Human P2X4 HEK Cell FLIPR Assay. In kind it is cell-based. Conditions: agonist Bz-ATP at EC80; for Emax: HEK293, HEK293 cells, percentage of maximal inhibition, read-out: Human P2X4 HEK Cells (FLIPR Assay) avg Efficacy [%]; for IC50: HEK293 cells, individual values listed where some fall outside detection range. The essentials: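 HEK293 cells stably expressing human P2X4, Fluo8-AM loaded 30 min at 37° C, then compound 30 min at room temperature (0.5% DMSO, pH 7.4 buffer with 1.8 mM CaCl2). Bz-ATP at its daily-determined EC80 added; calcium fluorescence read over 120 sec; IC50 from peak RFU normalized to agonist control, triplicates.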

Several values for one entry are separate records, joined by “and”; a condition that tells them apart may be missing. Identical values can stand only once.

Broadly, the IC50 is the concentration needed to halve the response being measured. High values mean weaker potency in that assay, low ones greater potency in that assay. For `NS(=O)(=O)c1cc(NC(=O)Cc2ccccc2Cl)ccc1-n1cc2ccccc2n1` [Example 396, 2-(2-Chlorophenyl)-N-[4-(2H-indazol-2-yl)-3-sulfamoylphenyl]acetamide], the Emax was 44%; the IC50 is 9.58 µM and > 25 µM (4×).
As to `NS(=O)(=O)c1cc(NC(=O)Cc2ccccc2F)ccc1-n1cc2ccccc2n1` [Example 397, 2-(2-Fluorophenyl)-N-[4-(2H-indazol-2-yl)-3-sulfamoylphenyl]acetamide], the Emax is 43% and the 50% inhibitory concentration (IC50) is greater than 25000 nM.
The corresponding values for `NS(=O)(=O)c1cc(NC(=O)Cc2ccccc2F)ccc1-n1ncc2ccccc21` [Example 398, 2-(2-Fluorophenyl)-N-[4-(1H-indazol-1-yl)-3-sulfamoylphenyl]acetamide] are 57% and 207 nM.
Regarding `CN(C)C(=O)c1cnn(-c2ccc(NC(=O)Cc3ccccc3Cl)cc2S(N)(=O)=O)c1` [Example 399, 1-(4-{[(2-Chlorophenyl)acetyl]amino}-2-sulfamoylphenyl)-N,N-dimethyl-1H-pyrazole-4-carboxamide], the Emax was found to be 92% and the IC50 is 84 nM.
The corresponding values for `NS(=O)(=O)c1cc(NC(=O)Cc2ccccc2Cl)ccc1-n1cc(NC(=O)C2CC2)cn1` [Example 400, N-[1-(4-{[(2-Chlorophenyl)acetyl]amino}-2-sulfamoylphenyl)-1H-pyrazol-4-yl]cyclopropanecarboxamide] are 88% and 87 nM.
Consider `NS(=O)(=O)c1cc(NC(=O)Cc2ccccc2Cl)ccc1-n1cc(-c2cnccn2)cn1` [Example 401, 2-(2-Chlorophenyl)-N-{4-[4-(pyrazin-2-yl)-1H-pyrazol-1-yl]-3-sulfamoylphenyl}acetamide], for which the Emax turned out to be 82% and the half-maximal inhibitory concentration (IC50) worked out at 23 nM.
As to `NS(=O)(=O)c1cc(NC(=O)Cc2ccccc2Cl)ccc1-n1cc(-c2ccccn2)cn1` [Example 402, 2-(2-Chlorophenyl)-N-{4-[4-(pyridin-2-yl)-1H-pyrazol-1-yl]-3-sulfamoylphenyl}acetamide], the Emax amounted to 85% and the 50% inhibitory concentration (IC50) was found to be 41 nM.
The matching figures for `NS(=O)(=O)c1cc(NC(=O)Cc2ccccc2Cl)ccc1-n1cc(-c2cccnc2)cn1` [Example 403, 2-(2-Chlorophenyl)-N-{4-[4-(pyridin-3-yl)-1H-pyrazol-1-yl]-3-sulfamoylphenyl}acetamide]: 88% and 16 nM.
For `NS(=O)(=O)c1cc(NC(=O)Cc2ccccc2Cl)ccc1-n1cc(-c2ccncn2)cn1` [Example 404, 2-(2-Chlorophenyl)-N-{4-[4-(pyrimidin-4-yl)-1H-pyrazol-1-yl]-3-sulfamoylphenyl}acetamide], the Emax is 73% and the IC50 worked out at 175 nM.
The corresponding values for `NS(=O)(=O)c1cc(NC(=O)Cc2ccccc2F)ccc1-n1cc(-c2ccncn2)cn1` [Example 405, 2-(2-Fluorophenyl)-N-{4-[4-(pyrimidin-4-yl)-1H-pyrazol-1-yl]-3-sulfamoylphenyl}acetamide] are 65% and 5670 nM.
For the compound `COc1ccc(CC(=O)Nc2ccc(-n3ncc(C(F)(F)F)n3)c(S(N)(=O)=O)c2)cc1` [Example 406, 2-(4-Methoxyphenyl)-N-{3-sulfamoyl-4-[4-(trifluoromethyl)-2H-1,2,3-triazol-2-yl]phenyl}acetamide], the Emax stood at 64% and the IC50 was 6840 nM.
The corresponding values for `COc1ccc(CC(=O)Nc2ccc(-n3cc(C(F)(F)F)nn3)c(S(N)(=O)=O)c2)cc1` [Example 407, 2-(4-Methoxyphenyl)-N-{3-sulfamoyl-4-[4-(trifluoromethyl)-1H-1,2,3-triazol-1-yl]phenyl}acetamide] are 86% and 429 nM.
The matching figures for `Cc1ccc(CC(=O)Nc2ccc(-n3ncc(C(F)(F)F)n3)c(S(N)(=O)=O)c2)cc1` [Example 408, 2-(4-Methylphenyl)-N-{3-sulfamoyl-4-[4-(trifluoromethyl)-2H-1,2,3-triazol-2-yl]phenyl}acetamide]: 74% and 2640 nM.
With `Cc1ccc(CC(=O)Nc2ccc(-n3cc(C(F)(F)F)nn3)c(S(N)(=O)=O)c2)cc1` [Example 409, 2-(4-Methylphenyl)-N-{3-sulfamoyl-4-[4-(trifluoromethyl)-1H-1,2,3-triazol-1-yl]phenyl}acetamide], the Emax is 85% and the concentration for half-maximal inhibition (IC50) is 445 nM.
With `NS(=O)(=O)c1cc(NC(=O)Cc2ccc(C(F)F)cc2)ccc1-n1ncc(C(F)(F)F)n1` [Example 410, 2-[4-(Difluoromethyl)phenyl]-N-{3-sulfamoyl-4-[4-(trifluoromethyl)-2H-1,2,3-triazol-2-yl]phenyl}acetamide], the Emax is 69% and the 50% inhibitory concentration (IC50) was 5450 nM.
Take `NS(=O)(=O)c1cc(NC(=O)Cc2ccc(C(F)F)cc2)ccc1-n1cc(C(F)(F)F)nn1` [Example 411, 2-[4-(Difluoromethyl)phenyl]-N-{3-sulfamoyl-4-[4-(trifluoromethyl)-1H-1,2,3-triazol-1-yl]phenyl}acetamide]: the Emax stood at 90% and the IC50 was 84 nM.
The corresponding values for `NS(=O)(=O)c1cc(NC(=O)Cc2ccccc2F)ccc1-n1ncc(C(F)(F)F)n1` [Example 412, 2-(2-Fluorophenyl)-N-{3-sulfamoyl-4-[4-(trifluoromethyl)-2H-1,2,3-triazol-2-yl]phenyl}acetamide] are 68% and 1590 nM.
Consider `NS(=O)(=O)c1cc(NC(=O)Cc2ccccc2F)ccc1-n1cc(C(F)(F)F)nn1` [Example 413, 2-(2-Fluorophenyl)-N-{3-sulfamoyl-4-[4-(trifluoromethyl)-1H-1,2,3-triazol-1-yl]phenyl}acetamide], for which the Emax came out at 89% and the half-maximal inhibitory concentration (IC50) was found to be 74 nM.
The corresponding values for `NS(=O)(=O)c1cc(NC(=O)Cc2ccc(C(F)(F)F)cc2Cl)ccc1-n1ncc(C(F)(F)F)n1` [Example 414, 2-[2-Chloro-4-(trifluoromethyl)phenyl]-N-{3-sulfamoyl-4-[4-(trifluoromethyl)-2H-1,2,3-triazol-2-yl]phenyl}acetamide] are 20% and greater than 25000 nM.
The corresponding values for `NS(=O)(=O)c1cc(NC(=O)Cc2ccc(C(F)(F)F)cc2Cl)ccc1-n1cc(C(F)(F)F)nn1` [Example 415, 2-[2-Chloro-4-(trifluoromethyl)phenyl]-N-{3-sulfamoyl-4-[4-(trifluoromethyl)-1H-1,2,3-triazol-1-yl]phenyl}acetamide] are 69% and 200 nM.
Take `NS(=O)(=O)c1cc(NC(=O)Cc2ccc(Cl)cc2Cl)ccc1-n1ncc(C(F)(F)F)n1` [Example 416, 2-(2,4-Dichlorophenyl)-N-{3-sulfamoyl-4-[4-(trifluoromethyl)-2H-1,2,3-triazol-2-yl]phenyl}acetamide]: the Emax turned out to be 51%; the IC50 is 8.3 µM and 17.8 µM and > 25 µM (2×).
In the case of `NS(=O)(=O)c1cc(NC(=O)Cc2ccc(Cl)cc2Cl)ccc1-n1cc(C(F)(F)F)nn1` [Example 417, 2-(2,4-Dichlorophenyl)-N-{3-sulfamoyl-4-[4-(trifluoromethyl)-1H-1,2,3-triazol-1-yl]phenyl}acetamide], the Emax stood at 68% and the half-inhibitory concentration (IC50) came to 51 nM.

The record behind these values is patent US11524938B2, “Aromatic sulfonamide derivatives” (Bayer Pharma Aktiengesellschaft, priority 2016, dated 2022).
